Test results: PMC10850954, “HDAC6/aggresome processing pathway importance for inflammasome formation is context-dependent” (The Journal of Biological Chemistry, 2024)

Assays:
HEK293T cells = test: CTG cell viability assay; type: cell-based; details: broad concentration range, 70 h
Experimental: (§1) U937, Jurkat, and HEK293T cells were plated with a density of 10^5 cells/ml, with 50 μl/well in a white 384 well plate (Corning #3570). Two hours after plating, XY-07-035 was dispensed to each well using HPd300e and incubated at 37 °C for 70 h. CellTiter-Glo (CTG) Luminescent Cell Viability Assay (Promega #G7572) was then used to measure cell viability. Aliquoted frozen CTG reagent and cell plates were warmed to room temperature prior to loading. After the plates were cooled to room temperature, the CTG reagent was loaded 15 μl/well with an electronic multichannel pipette. […] The luminescence signal was read over ten cycles for each data point on a PHERAstar FS microplate reader (BMG Labtech). The Relative abundance was calculated as the sum of the averages of duplicate individual 12-point dose-response data points.
(§2) Supplementary file mmc1.pdf: Supporting Figure S1 BMDM cells were primed by LPS (1 μg/ml) for 4 hrs and then challenged with 20 μM nigericin. 50 μl supernatant was collected every 15 min (up to 90 min) and mIL-1β level was determined by HTRF assay. […] DARPin F10 was detected by anti-HA antibody. […] Cells were treated with different concentrations of the degrader, and cell viability determined by CTG assay was normalized to the non-treated group. […] Supporting Figure S4: Cell viability was measured by resazurin assay, and fluorescence intensity was a representative of the viability.

Jurkat cells = test: CTG cell viability assay; type: cell-based; details: broad concentration range, 70 h
Experimental: as §1, §2

pyrin inflammasome = test: IL-18 release in U937-pyrin cells after BAA473 activation; type: cell-based, human; details: BAA473 200 μM 4 h, vs DMSO or XY-07-191 control
Experimental: Cells were treated with the indicated compounds and HDAC6 was detected by immunoblotting with an anti-HDAC6 antibody. Detection of actin was used as a control for protein loading. […] Pyrin inflammasome was activated by BAA473 (200 μM) for 4 h at 37 °C. […] The graph at the bottom presents IL-18 release based on four independent experiments.
Human IL-1β and IL-18 were determined with Cisbio HTRF Cisbio Human IL1β (#62HIL1BPET) and Human IL18 (#62HIL18PEG) protocols. All the data were from 3 or 4 independent biological replicates.
For pyrin inflammasome, U937-pyrin cells were seeded in 96 well after 0.5 μM PMA treatment for 3 h and then challenged by BAA473 (200 μM) for 4 h at 37 °C.

HDAC6 [1] = target: T1, HDAC6 (Homo sapiens, UniProt Q9UBN7); set-up: method as in PMID 34314730; details: cited from earlier work
T1 sequence (Q9UBN7 1-1215): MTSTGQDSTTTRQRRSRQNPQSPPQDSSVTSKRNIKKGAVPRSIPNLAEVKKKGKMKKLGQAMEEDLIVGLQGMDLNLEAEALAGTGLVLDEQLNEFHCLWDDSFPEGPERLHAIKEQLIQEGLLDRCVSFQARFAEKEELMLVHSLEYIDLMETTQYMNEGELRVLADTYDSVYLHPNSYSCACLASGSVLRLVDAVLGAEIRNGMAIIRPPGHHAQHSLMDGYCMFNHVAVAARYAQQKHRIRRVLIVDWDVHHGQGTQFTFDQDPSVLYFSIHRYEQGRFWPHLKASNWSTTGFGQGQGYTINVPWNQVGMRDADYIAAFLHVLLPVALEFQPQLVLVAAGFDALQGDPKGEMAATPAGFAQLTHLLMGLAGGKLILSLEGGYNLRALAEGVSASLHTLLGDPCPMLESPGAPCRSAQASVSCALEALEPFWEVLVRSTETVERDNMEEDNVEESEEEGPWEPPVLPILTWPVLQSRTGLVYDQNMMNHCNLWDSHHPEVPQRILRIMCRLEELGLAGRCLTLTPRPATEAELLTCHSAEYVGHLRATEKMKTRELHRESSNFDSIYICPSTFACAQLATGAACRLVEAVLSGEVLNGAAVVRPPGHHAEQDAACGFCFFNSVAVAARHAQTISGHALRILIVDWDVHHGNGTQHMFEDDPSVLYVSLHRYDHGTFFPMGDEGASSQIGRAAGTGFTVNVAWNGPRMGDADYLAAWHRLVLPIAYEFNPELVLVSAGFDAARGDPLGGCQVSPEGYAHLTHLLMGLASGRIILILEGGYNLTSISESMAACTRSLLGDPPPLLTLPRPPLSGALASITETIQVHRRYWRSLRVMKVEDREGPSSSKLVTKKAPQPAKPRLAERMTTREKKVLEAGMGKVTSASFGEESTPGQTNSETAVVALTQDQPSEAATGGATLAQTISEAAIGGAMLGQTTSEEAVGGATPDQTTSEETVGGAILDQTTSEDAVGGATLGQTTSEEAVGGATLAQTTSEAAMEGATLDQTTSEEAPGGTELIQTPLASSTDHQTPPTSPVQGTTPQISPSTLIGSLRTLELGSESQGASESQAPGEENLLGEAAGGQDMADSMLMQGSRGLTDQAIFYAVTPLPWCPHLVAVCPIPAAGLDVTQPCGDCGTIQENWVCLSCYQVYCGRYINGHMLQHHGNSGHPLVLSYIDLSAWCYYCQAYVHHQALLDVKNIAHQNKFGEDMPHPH

HDAC6 [2] = target: T1, HDAC6; test: HDAC6 degradation in THP-1 cells (immunoblot); type: cell-based; set-up: endogenous in cells; host or cells: PBMCs (with or without LPS priming); details: non-differentiated and PMA-differentiated THP-1 cells

Question: Which cellular toxicity (HEK293T cells) does the source give for CN(C(=O)CCCNc1cccc2c1C(=O)N(C1CCC(=O)NC1=O)C2=O)c1ccc(NC(=O)CCCCCCC(=O)NO)cc1 (centres unmarked) [XY-07-35] here?
Answer: does not show cellular toxicity

Question: And the cellular toxicity (Jurkat cells)?
Answer: does not show cellular toxicity

Question: What about the “change in IL-18 secretion” value (pyrin inflammasome) of the same compound?
Answer: did not result in any change

Question: And the “degradation profile (specificity)” value (HDAC6 [1])?
Answer: highly specific for HDAC6

Question: What about the HDAC6 degradation (HDAC6 [2]) of the same compound?
Answer: did not lead to HDAC6 degradation
